Results on seven molecules are retold here after ChEMBL document CHEMBL5303573, “Mapping human microbiome drug metabolism by gut bacteria and their genes” (Nature, 2019).

A short description of data set [1]: The drug is tested on Anaerococcus hydrogenalis strain: DSM7454 for biotransformation. The drug concentrations were measured before and after a 12-h incubation by liquid-chromatography-coupled mass spectrometry (LC–MS). To be noted: 2 µM.
A short description of data set [2]: The drug is tested on Bacteroides caccae strain: ATCC43185 for biotransformation. The drug concentrations were measured before and after a 12-h incubation by liquid-chromatography-coupled mass spectrometry (LC–MS). Conditions: 2 µM.
Data set [3] can be described thus: The drug is tested on Bacteroides fragilis strain: HMW610 for biotransformation. The drug concentrations were measured before and after a 12-h incubation by liquid-chromatography-coupled mass spectrometry (LC–MS). To be noted: 2 µM.
The nature of data set [4]: The drug is tested on Alistipes indistinctus strain: DSM22520 for biotransformation. The drug concentrations were measured before and after a 12-h incubation by liquid-chromatography-coupled mass spectrometry (LC–MS). To be noted: 2 µM.
For data set [5] the following is noted: enterocloster bolteae, 12 h, 2 µM.
Description: The drug is tested on Clostridium bolteae strain: ATCCBAA-613 for biotransformation. The drug concentrations were measured before and after a 12-h incubation by liquid-chromatography-coupled mass spectrometry (LC–MS)
A short description of data set [6]: The drug is tested on Coprococcus comes strain: ATCC27758 for biotransformation. The drug concentrations were measured before and after a 12-h incubation by liquid-chromatography-coupled mass spectrometry (LC–MS). It counts as ADME. The arrangement: dose 2 uM, timepoint 0 vs 12 hours. To be noted: 2 µM.
A short description of data set [7]: The drug is tested on Edwardsiella tarda strain: ATCC23685 for biotransformation. The drug concentrations were measured before and after a 12-h incubation by liquid-chromatography-coupled mass spectrometry (LC–MS). To be noted: 2 µM.
A short description of data set [8]: The drug is tested on Bacteroides sp. WH2 strain: WH2 for biotransformation. The drug concentrations were measured before and after a 12-h incubation by liquid-chromatography-coupled mass spectrometry (LC–MS). Conditions: bacteroides sp. wh2, 12 h, 2 µM.
Data set [9] can be described thus: The drug is tested on Bifidobacterium ruminantium strain: fecal isolate for biotransformation. The drug concentrations were measured before and after a 12-h incubation by liquid-chromatography-coupled mass spectrometry (LC–MS). To be noted: 2 µM.
A short description of data set [10]: The drug is tested on Bacteroides dorei strain: DSM17855 for biotransformation. The drug concentrations were measured before and after a 12-h incubation by liquid-chromatography-coupled mass spectrometry (LC–MS). Conditions: phocaeicola dorei, 2 µM.
Data set [11] can be described thus: The drug is tested on Enterobacter cancerogenus strain: ATCC35316 for biotransformation. The drug concentrations were measured before and after a 12-h incubation by liquid-chromatography-coupled mass spectrometry (LC–MS). Conditions: 2 µM.
The nature of data set [12]: The drug is tested on Ruminococcus torques strain: ATCC27756 for biotransformation. The drug concentrations were measured before and after a 12-h incubation by liquid-chromatography-coupled mass spectrometry (LC–MS). To be noted: 2 µM. On the set-up: dose 2 uM, timepoint 0 vs 12 hours. The data set is classed as ADME.
Data set [13] in a line: The drug is tested on Ruminococcus gnavus strain: ATCC29149 for biotransformation. The drug concentrations were measured before and after a 12-h incubation by liquid-chromatography-coupled mass spectrometry (LC–MS). Conditions: mediterraneibacter gnavus, 2 µM.
The conditions of data set [14]: anaerostipes sp., 12 h, 2 µM.
Description: The drug is tested on Anaerostipes sp. strain: fecal isolate for biotransformation. The drug concentrations were measured before and after a 12-h incubation by liquid-chromatography-coupled mass spectrometry (LC–MS)
A short description of data set [15]: The drug is tested on Clostridium ramosum strain: DSM1402 for biotransformation. The drug concentrations were measured before and after a 12-h incubation by liquid-chromatography-coupled mass spectrometry (LC–MS). To be noted: thomasclavelia ramosa, 2 µM.
Data set [16] can be described thus: The drug is tested on Eubacterium rectale strain: ATCC33656 for biotransformation. The drug concentrations were measured before and after a 12-h incubation by liquid-chromatography-coupled mass spectrometry (LC–MS). Conditions: agathobacter rectalis, 2 µM.
A short description of data set [17]: The drug is tested on Blautia luti strain: DSM14534 for biotransformation. The drug concentrations were measured before and after a 12-h incubation by liquid-chromatography-coupled mass spectrometry (LC–MS). It counts as ADME. To be noted: 2 µM. The arrangement: dose 2 uM, timepoint 0 vs 12 hours.
Data set [18] can be described thus: The drug is tested on Collinsella aerofaciens strain: ATCC25986 for biotransformation. The drug concentrations were measured before and after a 12-h incubation by liquid-chromatography-coupled mass spectrometry (LC–MS). To be noted: 2 µM.
Data set [19] in a line: The drug is tested on Bacteroides finegoldii strain: DSM17565 for biotransformation. The drug concentrations were measured before and after a 12-h incubation by liquid-chromatography-coupled mass spectrometry (LC–MS). To be noted: 2 µM.

For the molecule `COC(=O)Nc1nc2ccc(C(=O)c3ccccc3)cc2[nH]1` [MEBENDAZOLE], the “Bacterial Biotransformation” value is on record as “Compound NOT metabolized” in data set [1]; “Compound NOT metabolized” in [2]; “Compound metabolized” in data set [3]; “Compound NOT metabolized” in data set [4]; “Compound NOT metabolized” in data set [5]; “Compound NOT metabolized” in data set [6]. Besides, the “Bacterial Biotransformation” value was “Compound NOT metabolized” in [7]; “Compound NOT metabolized” in data set [8]; “Compound metabolized” in [9]; “Compound metabolized” in [10]; “Compound NOT metabolized” in data set [11]; “Compound NOT metabolized” in data set [12]. Moreover, the “Bacterial Biotransformation” value in data set [13], in [14], in data set [15] and in [16] was “Compound NOT metabolized” throughout.
For the molecule `Cc1nc(Nc2ncc(C(=O)Nc3c(C)cccc3Cl)s2)cc(N2CCN(CCO)CC2)n1.O` [DASATINIB], the “Bacterial Biotransformation” value in data set [17] is on record as “Compound NOT metabolized”; in [1], “Compound NOT metabolized”; in data set [2], “Compound NOT metabolized”; in data set [3], “Compound metabolized”; in [4], “Compound NOT metabolized”; in [18], “Compound NOT metabolized”. The “Bacterial Biotransformation” value in data set [5] was “Compound metabolized”; in [6], “Compound NOT metabolized”; in [8], “Compound NOT metabolized”; in data set [9], “Compound metabolized”; in data set [10], “Compound metabolized”; in data set [11], “Compound NOT metabolized”. Further, the “Bacterial Biotransformation” value is on record as “Compound NOT metabolized” in data set [12]; “Compound NOT metabolized” in data set [13]; “Compound metabolized” in [19]; “Compound metabolized” in [14]; “Compound NOT metabolized” in data set [15]; “Compound NOT metabolized” in data set [16].
For the molecule `Br.COc1ccc2c(c1)[C@]13CCCC[C@@H]1[C@H](C2)N(C)CC3.O` [DEXTROMETHORPHAN HYDROBROMIDE], the “Bacterial Biotransformation” value in data set [17], in [1], in data set [2], in data set [4], in data set [18] and in data set [5] was “Compound NOT metabolized” each time. Besides, the “Bacterial Biotransformation” value in data set [6], in data set [7], in data set [8], in data set [9], in data set [10] and in [11] was “Compound NOT metabolized” each time. The “Bacterial Biotransformation” value in [12], in data set [13], in data set [19], in [14], in data set [15] and in [16] was “Compound NOT metabolized” in each case.
With `CCN(CC)CCOC(=O)C1(C2CCCCC2)CCCCC1` [DICYCLOMINE], the “Bacterial Biotransformation” value in data set [17], in data set [1], in [2], in data set [3], in data set [4] and in [18] was “Compound NOT metabolized” each time. The “Bacterial Biotransformation” value in data set [5] is “Compound NOT metabolized”; in data set [6], “Compound NOT metabolized”; in data set [8], “Compound NOT metabolized”; in [10] it was “Compound metabolized”; in data set [11] it was “Compound NOT metabolized”; in data set [12], “Compound metabolized”. Besides, the “Bacterial Biotransformation” value in [13], in data set [14] and in [15] was “Compound NOT metabolized” each time.
With `OC(Cn1cncn1)(Cn1cncn1)c1ccc(F)cc1F` [FLUCONAZOLE], the “Bacterial Biotransformation” value in data set [17] is “Compound NOT metabolized”; in [1] it was “Compound NOT metabolized”; in [2] it was “Compound NOT metabolized”; in data set [3] it was “Compound metabolized”; in data set [4], “Compound NOT metabolized”; in data set [18], “Compound NOT metabolized”. Moreover, the “Bacterial Biotransformation” value in [5] is on record as “Compound NOT metabolized”; in data set [7] it was “Compound NOT metabolized”; in [8], “Compound NOT metabolized”; in data set [9] it was “Compound metabolized”; in data set [10], “Compound metabolized”; in data set [11] it was “Compound NOT metabolized”. Further, the “Bacterial Biotransformation” value was “Compound metabolized” in data set [12]; “Compound metabolized” in data set [13]; “Compound NOT metabolized” in data set [19]; “Compound NOT metabolized” in data set [14]; “Compound NOT metabolized” in data set [15].
Take `COc1ccccc1N1CCN(CC(O)COc2cccc3ccccc23)CC1` (stereo unspecified) [NAFTOPIDIL]: the “Bacterial Biotransformation” value in [17] was “Compound NOT metabolized”; in data set [1], “Compound NOT metabolized”; in [2] it was “Compound NOT metabolized”; in data set [3], “Compound metabolized”; in data set [4], “Compound NOT metabolized”; in [18], “Compound NOT metabolized”. In addition, the “Bacterial Biotransformation” value in [5], in [7], in [8], in [10], in data set [11] and in data set [12] was “Compound NOT metabolized” each time. Further, the “Bacterial Biotransformation” value in data set [13], in data set [19], in data set [14], in [15] and in [16] was “Compound NOT metabolized” throughout.
Take `CN(C(=O)CN(CCO)CC(=O)N(C)C(C)(C)Cc1ccccc1)C(C)(C)Cc1ccccc1` [OXETHAZAINE]: the “Bacterial Biotransformation” value in [17], in data set [1], in [2], in data set [3], in [4] and in [18] was “Compound NOT metabolized” each time. In addition, the “Bacterial Biotransformation” value in [7], in data set [8], in data set [9], in data set [11], in [12] and in data set [13] was “Compound NOT metabolized” each time. The “Bacterial Biotransformation” value in data set [19], in data set [14] and in data set [15] was “Compound NOT metabolized” in each case.
